Assay results reported in US7928126B2, “Cyanopyridine derivative and use thereof as medicine” (Mitsubishi Tanabe Pharma Corporation, priority 2005, dated 2011).
Structures can show the parent of a compound that is named as a salt.

Key:
[1] = tested on: human colon cancer cell line HCT-116; test: Cancer cell growth inhibition (WST-8), HCT-116; type: cell-based; conditions: HCT-116, 72 h, HCT116, 3 days, read-out: Cell proliferation suppressive activity value IC50
Procedure: (§1) Using RPMI1640 medium (manufactured by SIGMA) containing 10% fetal bovine serum, human prostate cancer cell line PC-3, human pancreatic cancer cell line PK-8, and human breast cancer cell line MDA-MB-453 were cultured at 37° C. under 5% CO2. Using DMEM/F-12 medium (manufactured by SIGMA) containing 10% fetal bovine serum, human colon cancer cell line HCT-116, human colon cancer cell line SW620, human ovarian cancer cell line SKOV-3, human prostate cancer cell line DU-145 and human pancreatic cancer cell line PANC-1 were cultured at 37° C. under 5% CO2. These cells were inoculated to a 96 well plate and cultured for one day. Thereto was added a compound diluted with a medium to a final concentration of 0.00064-20 μM (final DMSO concentration, 0.4%). After further cultivation for 3 days, WST-8 (0.16 mg/mL) was added to the culture medium and the culture medium was cultured for 2 hr. The absorbance at 650 nm was subtracted from the absorbance at 450 nm. The growth inhibitory activity was expressed by the decrease rate of the absorbance of compound addition group relative to the absorbance of compound non-addition group, and IC50 value was determined from the dose-reaction curve plotting the decrease rate of the absorbance, which was obtained by changing the concentration of the compound, and the concentration of the compound.

[2] = tested on: human pancreatic cancer cell line PANC-1; test: Cancer cell growth inhibition (WST-8), PANC-1; type: cell-based; conditions: 72 h, PANC-1, 3 days, read-out: Cell proliferation suppressive activity value IC50
Procedure: as §1

[3] = tested on: human prostate cancer cell line DU-145; test: Cancer cell growth inhibition (WST-8), DU-145; type: cell-based; conditions: DU-145, 72 h, DU145, 3 days, read-out: Cell proliferation suppressive activity value IC50
Procedure: as §1

aurora 1 kinase = molecular target: T1, aurora 1 kinase (Homo sapiens, UniProt Q96GD4); test: Aurora 1 kinase assay (32P-ATP, peptide substrate LRRWSLG); type: biochemical; conditions: room temperature 60 min
T1 construct: purchased UPSTATE

[4] = tested on: human ovarian cancer cell line SKOV-3; test: Cancer cell growth inhibition (WST-8), SKOV-3; type: cell-based; conditions: SK-OV-3, 72 h, SKOV3, 3 days, read-out: Cell proliferation suppressive activity value IC50
Procedure: as §1

[5] = tested on: human prostate cancer cell line PC-3; test: Cancer cell growth inhibition (WST-8), PC-3; type: cell-based; conditions: 72 h, PC3, 3 days, read-out: Cell proliferation suppressive activity value IC50
Procedure: as §1

[6] = tested on: human pancreatic cancer cell line PK-8; test: Cancer cell growth inhibition (WST-8), PK-8; type: cell-based; conditions: 72 h, PK8, 3 days, read-out: Cell proliferation suppressive activity value IC50
Procedure: as §1

aurora 2 kinase = molecular target: T2, aurora 2 kinase (Homo sapiens, UniProt O14965); test: Aurora 2 kinase assay (32P-ATP, peptide substrate LRRASLG); type: biochemical; conditions: room temperature 60 min
T2 construct: The amplified gene encoding aurora 2 kinase was introduced into Escherichia coli expression vector pET32a; made in house; host or cells: Escherichia coli BL21R (Novagen), vector pET32a
T2 sequence (O14965 1-403): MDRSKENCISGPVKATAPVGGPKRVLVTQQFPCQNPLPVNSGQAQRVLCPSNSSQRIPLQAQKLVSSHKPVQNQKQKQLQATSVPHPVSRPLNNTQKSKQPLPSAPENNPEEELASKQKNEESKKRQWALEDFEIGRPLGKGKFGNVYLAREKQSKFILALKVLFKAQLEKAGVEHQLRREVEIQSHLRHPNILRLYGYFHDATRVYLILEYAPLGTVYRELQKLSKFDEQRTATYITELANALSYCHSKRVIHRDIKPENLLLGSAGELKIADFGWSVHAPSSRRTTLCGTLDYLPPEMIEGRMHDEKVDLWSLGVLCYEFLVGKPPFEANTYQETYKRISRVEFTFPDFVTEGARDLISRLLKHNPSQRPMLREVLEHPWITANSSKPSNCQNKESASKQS

[7] = molecular target: T3, Porcine brain tubulin protein (Sus scrofa, UniProt P02550+P02554); test: Tubulin polymerization assay (turbidity at 405 nm); type: biochemical; conditions: 10 μM compound, maximum polymerization rate, 37° C.; read-out: inhibitory rate (%)
T3 construct: 3.3 mg/ml Porcine brain tubulin protein: Cytoskeleton; purchased Cytoskeleton; host or cells: porcine brain (tissue-derived)
Procedure: A tubulin polymerization reaction mixture (50 μL) (80 mM Pipes pH=6.9, 0.5 mM MgCl2, 1 mM EGTA, 1 mM GTP, 3.3 mg/ml Porcine brain tubulin protein: Cytoskeleton, 10 μM compound) was prepared in a 96 well flat bottom plate under ice-cooling. This was placed in a plate reader (IWAKI microplate reader, EZS-ABS) controlled to a temperature of 37° C., whereby a temperature dependent tubulin polymerization reaction was initiated. Since the turbidity of the reaction mixture increases as the tubulin polymerization proceeds, the absorbance at 405 nm was measured every other minute for 30 min to monitor the polymerization reaction. Of the 30 min measures, the three largest differences per min of turbidity (generally those immediately after start of the reaction) were taken, and the average of the three values was calculated and taken as the maximum polymerization rate. Inhibitory percent (%)=(C−T)/C×100 wherein T is the maximum polymerization rate of the reaction mixture containing the compound, and C is the maximum polymerization rate of the reaction mixture without the compound.

[8] = tested on: human breast cancer cell line MDA-MB-453; test: Cancer cell growth inhibition (WST-8), MDA-MB-453; type: cell-based; conditions: MDA-MB-453, 72 h, MDAMB-453, 3 days, read-out: Cell proliferation suppressive activity value IC50
Procedure: as §1

[9] = tested on: human colon cancer cell line SW620; test: Cancer cell growth inhibition (WST-8), SW620; type: cell-based; conditions: SW-620, 72 h, SW620, 3 days, read-out: Cell proliferation suppressive activity value IC50
Procedure: as §1

human cancer cell lines = test: Cancer cell growth inhibitory effect, whole cell line panel; type: cell-based; conditions: over the panel of cell lines
Procedure: as §1

T1 sequence (Q96GD4 whole entry): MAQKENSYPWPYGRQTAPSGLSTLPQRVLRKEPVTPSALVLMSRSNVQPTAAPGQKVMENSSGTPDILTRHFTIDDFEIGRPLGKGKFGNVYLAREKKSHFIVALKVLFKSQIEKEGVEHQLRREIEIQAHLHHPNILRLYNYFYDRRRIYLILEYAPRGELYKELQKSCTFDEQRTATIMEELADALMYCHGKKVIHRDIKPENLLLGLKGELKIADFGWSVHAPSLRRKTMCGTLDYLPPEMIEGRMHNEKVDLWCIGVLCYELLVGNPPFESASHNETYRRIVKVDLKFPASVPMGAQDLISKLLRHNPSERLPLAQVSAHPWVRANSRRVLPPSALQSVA
T3 sequence (P02550 whole entry): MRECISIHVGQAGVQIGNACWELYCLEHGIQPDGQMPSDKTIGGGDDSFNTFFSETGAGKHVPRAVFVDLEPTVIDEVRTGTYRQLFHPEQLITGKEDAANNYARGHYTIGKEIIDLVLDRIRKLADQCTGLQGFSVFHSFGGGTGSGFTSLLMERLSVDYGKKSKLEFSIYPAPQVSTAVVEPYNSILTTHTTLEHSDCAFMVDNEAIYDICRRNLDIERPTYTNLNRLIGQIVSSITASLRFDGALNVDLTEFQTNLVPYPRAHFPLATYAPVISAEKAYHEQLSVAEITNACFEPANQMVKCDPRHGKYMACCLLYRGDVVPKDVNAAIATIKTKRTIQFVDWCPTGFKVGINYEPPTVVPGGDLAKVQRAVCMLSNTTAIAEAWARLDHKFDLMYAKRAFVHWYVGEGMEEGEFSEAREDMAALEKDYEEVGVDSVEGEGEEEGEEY
T3 sequence (P02554 whole entry): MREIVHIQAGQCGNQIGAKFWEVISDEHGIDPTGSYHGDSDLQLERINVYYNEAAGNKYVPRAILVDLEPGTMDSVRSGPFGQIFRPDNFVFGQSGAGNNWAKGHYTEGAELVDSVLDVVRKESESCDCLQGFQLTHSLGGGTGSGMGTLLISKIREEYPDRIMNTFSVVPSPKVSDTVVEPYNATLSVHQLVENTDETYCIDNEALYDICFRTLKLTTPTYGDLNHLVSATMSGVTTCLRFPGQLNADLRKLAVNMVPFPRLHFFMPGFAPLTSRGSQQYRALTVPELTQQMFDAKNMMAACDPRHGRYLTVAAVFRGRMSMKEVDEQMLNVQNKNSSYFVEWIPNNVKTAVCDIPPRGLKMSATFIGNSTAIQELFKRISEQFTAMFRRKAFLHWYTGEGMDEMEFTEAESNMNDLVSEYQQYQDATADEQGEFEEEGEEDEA

Cc1cc(Nc2ccc(C#N)c(NCCOc3cccnc3C)n2)n[nH]1 [Example 28, 2-(2-(2-methylpyridin-3-yloxy)ethylamino)-6-(5-methyl-1H-pyrazol-3-ylamino)nicotinonitrile dihydrochloride]
IC50 [1]: 3 nM
IC50 [2]: 6180 nM
IC50 [3]: 19 nM
Ki (aurora 1 kinase): ≤ 100 nM
IC50 [4]: < 6.4 nM
IC50 [5]: < 6.4 nM
IC50 [6]: < 6.4 nM
Ki (aurora 2 kinase): 4 nM
inhibition at 10 µM [7]: 69%
IC50 [8]: 4 nM
IC50 [9]: < 6.4 nM

Cc1ccc(OCCNc2nc(Nc3cc(C)[nH]n3)cc(C)c2C#N)c(C)n1 [Example 23, 2-(2-(2,6-dimethylpyridin-3-yloxy)ethylamino)-6-(5-methyl-1H-pyrazol-3-ylamino)-4-methylnicotinonitrile dihydrochloride]
IC50 [1]: 37 nM
IC50 [2]: 3 nM
IC50 [3]: 50 nM
cancer cell growth inhibitory action (in words) (human cancer cell lines): good cancer cell growth inhibitory action over a broad range
IC50 [4]: 8 nM
IC50 [5]: 21 nM
IC50 [6]: 13 nM
Ki (aurora 2 kinase): 10 nM
inhibition at 10 µM [7]: 77%
IC50 [8]: 40 nM
IC50 [9]: 40 nM

Cc1cc(Nc2cc(C)c(C#N)c(NCCOc3cccnc3C)n2)n[nH]1 [Example 22, 2-(2-(2-methylpyridin-3-yloxy)ethylamino)-6-(5-methyl-1H-pyrazol-3-ylamino)-4-methylnicotinonitrile dihydrochloride]
IC50 [1]: 4 nM
IC50 [2]: < 6.4 nM
IC50 [3]: 8 nM
cancer cell growth inhibitory action (in words) (human cancer cell lines): good cancer cell growth inhibitory action over a broad range
IC50 [4]: 4 nM
IC50 [5]: 15 nM
IC50 [6]: 7 nM
Ki (aurora 2 kinase): 4 nM
inhibition at 10 µM [7]: 79%
IC50 [8]: < 6.4 nM
IC50 [9]: < 6.4 nM

Cc1ccc(OCCNc2nc(Nc3cc(C)[nH]n3)cc(C)c2C#N)cn1 [Example 21, 2-(2-(6-methylpyridin-3-yloxy)ethylamino)-6-(5-methyl-1H-pyrazol-3-ylamino)-4-methylnicotinonitrile]
IC50 [1]: 7 nM
IC50 [2]: 14 nM
IC50 [3]: 13 nM
Ki (aurora 1 kinase): ≤ 100 nM
cancer cell growth inhibitory action (in words) (human cancer cell lines): good cancer cell growth inhibitory action over a broad range
IC50 [4]: 3 nM
IC50 [5]: 4 nM
IC50 [6]: 8 nM
Ki (aurora 2 kinase): 2 nM
inhibition at 10 µM [7]: 63%
IC50 [8]: 12 nM
IC50 [9]: 5 nM

Cc1cc(Nc2cc(C)c(C#N)c(NCCOc3cccnc3)n2)n[nH]1 [Example 12, 2-(2-(pyridin-3-yloxy)ethylamino)-6-(5-methyl-1H-pyrazol-3-ylamino)-4-methylnicotinonitrile dihydrochloride]
IC50 [1]: 2 nM
IC50 [2]: 9 nM
IC50 [3]: 7 nM
Ki (aurora 1 kinase): ≤ 100 nM
cancer cell growth inhibitory action (in words) (human cancer cell lines): good cancer cell growth inhibitory action over a broad range
IC50 [4]: 1 nM
IC50 [5]: 7 nM
IC50 [6]: 4 nM
Ki (aurora 2 kinase): 2 nM
inhibition at 10 µM [7]: 44%
IC50 [8]: 3 nM
IC50 [9]: < 6.4 nM

Cc1cc(Nc2cc(C)c(C#N)c(NCCOc3ccccc3)n2)n[nH]1 [Example 2, 2-(2-phenoxyethylamino)-6-(5-methyl-1H-pyrazol-3-ylamino)-4-methylnicotinonitrile]
IC50 [1]: 11 nM
IC50 [2]: 1290 nM
IC50 [3]: 7 nM
Ki (aurora 1 kinase): ≤ 100 nM
IC50 [4]: 10 nM
IC50 [5]: 17 nM
IC50 [6]: 18 nM
Ki (aurora 2 kinase): 3 nM
inhibition at 10 µM [7]: 69%
IC50 [8]: 7 nM
IC50 [9]: 8 nM

Cc1cc(Nc2cc(C)c(C#N)c(NCCOc3cccc(F)c3)n2)n[nH]1 [Example 9, 2-(2-(3-fluorophenoxy)ethylamino)-6-(5-methyl-1H-pyrazol-3-ylamino)-4-methylnicotinonitrile hydrochloride]
IC50 [1]: 17 nM
IC50 [2]: 1180 nM
IC50 [3]: 647 nM
IC50 [4]: < 6.4 nM
IC50 [5]: < 6.4 nM
IC50 [6]: 83 nM
Ki (aurora 2 kinase): 1 nM
inhibition at 10 µM [7]: 86%
IC50 [8]: < 6.4 nM
IC50 [9]: < 6.4 nM
